Results reported in PubChem BioAssay AID2060505 (Molecular Pharmacology Branch, DTP, NCI, 2025).

Test system: 633275-114-R-J1-PDC complex spheroids, viability
Test: Anticancer human tumor 633275-114-R-J1-PDC patient-derived endometrial adenocarcinoma cell line growth inhibition [GQUAD]
Details: for IC50: curve of first compound; for viability, T/C: stronger effect = lower value
From the text: DNA G-quadruplex Stabilizer Agents in Combinations in Complex Spheroids
A high-throughput screen of multi-cell type tumor spheroids was designed to identify active combinations of DNA G-quadruplex stabilizer agents and targeted small molecules. Complex spheroids include a stromal component modeled by human endothelial cells (HUVEC) and fibroblasts modeled by human mesenchymal stem cells (MSCs). The concentration ranges selected for each drug and investigational agent were based upon clinically achievable concentrations if the clinical Cmax of the agent was known.
Compounds. The drugs and investigational agents: pidnarulex (CX-5461; NSC782164), APTO-253 (NSC789042), BRACO-19 (NSC847499), peposertib (NSC802822), ceralasertib (NSC780249), elimusertib (NSC800525), camonsertib (NSC841442), AZD-1390 (NSC803789), olaparib (NSC753686), talazoparib (NSC767125), ART-558 (NSC835418), sotorasib (NSC818433), MRTX-1133 (NSC836407), SN-38 (NSC673596), topotecan (NSC609699), etoposide (NSC141540), doxorubicin (NSC123127), gemcitabine (NSC613327), 5-fluorouracil (NSC19893), paclitaxel (NSC125973), vemurafenib (NSC761431), panobinostat (NSC761190), R-306465 (JNJ-16241199; NSC773264), adavosertib (NSC754352), TP-3654 (NSC805149), carboplatin (NSC241240), KSQ-4279 (NSC840948), and staurosporine (NSC755774) were obtained from the National Cancer Institute (NCI) Developmental Therapeutics Program Chemical Repository (34). The FDA-approved anticancer drug set is available from the NCI Developmental Therapeutics Program. […] The stock solutions were prepared in dimethyl sulfoxide (DMSO, Sigma-Aldrich, St. Louis, MO, cat. D2650) at 800-fold the tested concentration and stored at -70 degrees C prior to their use. All drugs and investigational agents were tested over a range starting from a high concentration at or near the clinical Cmax and decreasing in half-log increments. If the clinical Cmax for an agent had not been determined, the highest concentration tested was 10 microM.
2.3 Cell Culture. All cells were maintained in an incubator at 37 degrees C and 5% CO2 with 95% humidity. The PDC lines were cultured according to standard operating procedures established by the NCI PDMR. All PDCs were thawed and cultured in Matrigel-coated flasks prepared with a working solution of 1X Ham's F-12 nutrient mix, without supplementation (Invitrogen, cat. 11765054), 100 U/mL penicillin-streptomycin (Invitrogen, cat. 15140122), and 2.5% Matrigel (Corning Inc., cat. 354248) for the first three passages. The 857933-349-R-J2-PDC line was cultured in 6C/Colon 1B media, which includes advanced DMEM/F-12 (Thermo Fisher Scientific, cat. 12634028), 10 mM HEPES (Thermo Fisher Scientific, cat. 15630080), 1X GlutaMAX supplement (Thermo Fisher Scientific, cat. 35050061), 0.1 mg/mL primocin (InvivoGen, cat. ant-pm-2), 10% defined fetal bovine serum, heat inactivated (HyClone Laboratories Inc., cat. SH30070.03HI), 50% L-WRN conditioned media (ATCC, cat. CRL-3276), 1.25 mM N-Acetyl-L-cysteine (Sigma-Aldrich, cat. A9165), 10 mM nicotinamide (Sigma-Aldrich, cat. N0636), 1X B-27 supplement (Thermo Fisher Scientific, cat. 17504044), 1X N-2 supplement (Thermo Fisher Scientific, cat. 17502048), 10 microM Y-27632 dihydrochloride (Tocris Bioscience, cat. 1254), and 50 ng/mL human EGF recombinant protein (Thermo Fisher Scientific, cat. PHG0311). The 485176-168-R4-J1-PDC line was cultured in Panc media, which includes all 6C/Colon 1B media components plus 100 ng/mL human FGF-10 (Thermo Fisher Scientific, cat. 100-26), 500 nM SB-431542 (Selleckchem, cat. S1067), and gastrin (Tocris, cat. 3006).
[…]

[1] = second compound 0.0316 µM, first compound 0.0316 µM
[2] = second compound 0.0316 µM, first compound 0.1 µM
[3] = second compound 0.0316 µM, first compound 0.316 µM
[4] = second compound 0.0316 µM, first compound 1 µM
[5] = second compound 0.0316 µM, first compound 3.16 µM
[6] = second compound 0.0316 µM, first compound 10 µM
[7] = second compound 0.1 µM, first compound 0.0316 µM
[8] = second compound 0.1 µM, first compound 0.1 µM
[9] = second compound 0.1 µM, first compound 0.316 µM
[10] = second compound 0.1 µM, first compound 1 µM
[11] = second compound 0.1 µM, first compound 3.16 µM
[12] = second compound 0.1 µM, first compound 10 µM
[13] = second compound 0.316 µM, first compound 0.0316 µM
[14] = second compound 0.316 µM, first compound 0.1 µM
[15] = second compound 0.316 µM, first compound 0.316 µM
[16] = second compound 0.316 µM, first compound 1 µM
[17] = second compound 0.316 µM, first compound 3.16 µM
[18] = second compound 0.316 µM, first compound 10 µM
[19] = second compound 1 µM, first compound 0.0316 µM
[20] = second compound 1 µM, first compound 0.1 µM
[21] = second compound 1 µM, first compound 0.316 µM
[22] = second compound 1 µM, first compound 1 µM
[23] = second compound 1 µM, first compound 3.16 µM
[24] = second compound 1 µM, first compound 10 µM
[25] = second compound 3.16 µM, first compound 0.0316 µM
[26] = second compound 3.16 µM, first compound 0.1 µM
[27] = second compound 3.16 µM, first compound 0.316 µM
[28] = second compound 3.16 µM, first compound 1 µM
[29] = second compound 3.16 µM, first compound 3.16 µM
[30] = second compound 3.16 µM, first compound 10 µM
[31] = second compound 10 µM, first compound 0.0316 µM
[32] = second compound 10 µM, first compound 0.1 µM
[33] = second compound 10 µM, first compound 0.316 µM
[34] = second compound 10 µM, first compound 1 µM
[35] = second compound 10 µM, first compound 3.16 µM
[36] = second compound 10 µM, first compound 10 µM
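Also: spheroids exposed to the agents for seven days.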
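For viability, T/C in this document: percent of DMSO vehicle control viability which is 100%.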

Structure (SMILES): CC(C)(O)C1CCC(Nc2ccc3ncc(-c4cccc(C(F)(F)F)c4)n3n2)CC1 (centres undefined) + CN(C)c1ccc(Nc2c3ccc(NC(=O)CCN4CCCC4)cc3nc3cc(NC(=O)CCN4CCCC4)ccc23)cc1
- IC50 (second compound 0.0316 µM): 1850 nM
- IC50 (second compound 0.1 µM): 1990 nM
- IC50 (second compound 0.316 µM): 2090 nM
- IC50 (second compound 1 µM): 1820 nM
- IC50 (second compound 3.16 µM): 1310 nM
- IC50 (second compound 10 µM): < 31.6 nM
- viability, T/C [1]: 102%
- viability, T/C [2]: 96.8%
- viability, T/C [3]: 90.1%
- viability, T/C [4]: 72.2%
- viability, T/C [5]: 28.8%
- viability, T/C [6]: 32.2%
- viability, T/C [7]: 94%
- viability, T/C [8]: 99.9%
- viability, T/C [9]: 88.2%
- viability, T/C [10]: 70.4%
- viability, T/C [11]: 32.8%
- viability, T/C [12]: 39.7%
- viability, T/C [13]: 97.6%
- viability, T/C [14]: 87.7%
- viability, T/C [15]: 92.6%
- viability, T/C [16]: 76.1%
- viability, T/C [17]: 32.7%
- viability, T/C [18]: 37.8%
- viability, T/C [19]: 94.6%
- viability, T/C [20]: 97.2%
- viability, T/C [21]: 88.3%
- viability, T/C [22]: 73%
- viability, T/C [23]: 27.8%
- viability, T/C [24]: 28.2%
- viability, T/C [25]: 85.4%
- viability, T/C [26]: 69.2%
- viability, T/C [27]: 81.9%
- viability, T/C [28]: 59.5%
- viability, T/C [29]: 19.1%
- viability, T/C [30]: 20.4%
- viability, T/C [31]: 33.1%
- viability, T/C [32]: 32.3%
- viability, T/C [33]: 23.7%
- viability, T/C [34]: 21.1%
- viability, T/C [35]: 7.71%
- viability, T/C [36]: 6.08%

Structure (SMILES): CC1COCCN1c1cc(C2(O)CC3CCC(C2)O3)c2cnn(-c3ccn[nH]3)c2n1 (centres undefined) + CN(C)c1ccc(Nc2c3ccc(NC(=O)CCN4CCCC4)cc3nc3cc(NC(=O)CCN4CCCC4)ccc23)cc1
- IC50 (second compound 0.0316 µM): 93.5 nM
- IC50 (second compound 0.1 µM): 92.7 nM
- IC50 (second compound 0.316 µM): 105 nM
- IC50 (second compound 1 µM): 65.3 nM
- IC50 (second compound 3.16 µM): 53.2 nM
- IC50 (second compound 10 µM): < 31.6 nM
- viability, T/C [1]: 73.6%
- viability, T/C [2]: 48.9%
- viability, T/C [3]: 28.7%
- viability, T/C [4]: 18.4%
- viability, T/C [5]: 13.6%
- viability, T/C [6]: 9.33%
- viability, T/C [7]: 79.9%
- viability, T/C [8]: 46.5%
- viability, T/C [9]: 30.2%
- viability, T/C [10]: 19.8%
- viability, T/C [11]: 15.4%
- viability, T/C [12]: 9.07%
- viability, T/C [13]: 70.7%
- viability, T/C [14]: 50.7%
- viability, T/C [15]: 33.1%
- viability, T/C [16]: 19.2%
- viability, T/C [17]: 15.8%
- viability, T/C [18]: 10.4%
- viability, T/C [19]: 62.7%
- viability, T/C [20]: 41.7%
- viability, T/C [21]: 30.4%
- viability, T/C [22]: 19.8%
- viability, T/C [23]: 14.4%
- viability, T/C [24]: 9.06%
- viability, T/C [25]: 58.8%
- viability, T/C [26]: 39%
- viability, T/C [27]: 26.7%
- viability, T/C [28]: 15.3%
- viability, T/C [29]: 12%
- viability, T/C [30]: 8.3%
- viability, T/C [31]: 29.2%
- viability, T/C [32]: 23.9%
- viability, T/C [33]: 17%
- viability, T/C [34]: 10.9%
- viability, T/C [35]: 8.55%
- viability, T/C [36]: 4.92%
